Read-outs that look alike come from different tables or passages of the source. Values belong to the molecule of their own block, whether it stands above or below them.
Columns and labels:
[1] = target: T1, rat PAH (Rattus norvegicus, UniProt P04176); assay: SEC of purified rat PAH (Superdex 200); details: Phe in running buffer (FIG. 7D)
T1 construct: expression vectors for full length untagged rat and human PAH from Prof; P. Fitzpatrick; made in house
T1 sequence (P04176 1-453): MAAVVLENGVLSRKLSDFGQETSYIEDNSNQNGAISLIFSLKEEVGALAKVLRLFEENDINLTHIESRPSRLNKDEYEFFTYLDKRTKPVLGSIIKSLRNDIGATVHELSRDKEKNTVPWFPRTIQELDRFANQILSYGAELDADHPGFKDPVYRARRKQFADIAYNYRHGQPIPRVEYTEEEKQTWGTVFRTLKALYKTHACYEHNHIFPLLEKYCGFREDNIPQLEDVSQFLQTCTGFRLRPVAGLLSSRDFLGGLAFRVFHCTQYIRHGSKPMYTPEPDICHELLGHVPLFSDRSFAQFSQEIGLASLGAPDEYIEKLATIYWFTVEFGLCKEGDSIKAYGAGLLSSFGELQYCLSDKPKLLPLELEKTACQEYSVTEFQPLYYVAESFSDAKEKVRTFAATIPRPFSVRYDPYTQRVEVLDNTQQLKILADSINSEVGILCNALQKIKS
Description: (§1) FIG. 7 represents preliminary results on purified mammalian PAH. […] Full length human PAH, cleaved from an N-terminal MBP fusion construct, runs at a dimer:tetramer ratio of ˜2:1 on a calibrated Superdex-200 column. With 1 mM Phe added to the running buffer, this ratio is shifted to ˜1:1. Buffers contain 125 mM KCl, which is known to stabilize the tetramer. FIG. 7B represents preliminary kinetic studies on purified rat PAH, monitoring tyrosine fluorescence, showing “order of addition” effects at 300 μM Phe and 75 μM BH4. […] FIG. 7E is a full length rat PAH ([…]), run on a 1 ml HiTrap Q column in 30 mM Tris-HCl with a KCl gradient (B=400 mM KCl). […] FIG. 7F is native PhastGel Western blot showing the effects of ligands on the rat PAH quaternary structure equilibrium (overnight, RT, ˜1 mg/ml). Lane 1—as purified; Lane 2—1 mM Phe; Lane 3—50 μM Phe; Lane 4—75 μM BH4; Lane 5, 50 μPhe+75 μM BH4.
(§2) With regard to the oligomeric equilibrium, rat PAH (in 15% glycerol) is found to be predominantly tetrameric by both native PAGE and SEC (FIGS. 7C & 7D). […] Coupled with the SEC results in FIG. 7D, this illustrates that IEC can be used to separate two tetramers, 4mer and 4mer*.

[2] = target: T1, rat PAH; assay: Ion exchange chromatography of rat PAH (HiTrap Q, KCl gradient); details: 1 mM Phe in the elution buffer, 30 mM Tris-HCl, KCl gradient (FIG. 7E)
Description: as §1, §2

[3] = target: T1, rat PAH; assay: Native PAGE (PhastGel Western blot) of rat PAH quaternary structure equilibrium; details: ~1 mg/ml rat PAH, overnight, RT; 1 mM or 50 μM Phe, 75 μM BH4
Description: as §1, §2

[4] = target: T2, PAH (Rattus norvegicus, UniProt P04176); details: cited from earlier work
T2 sequence (P04176 1-453): T1 sequence (P04176 1-453)

[5] = target: the molecule itself; assay: SEC on calibrated Superdex-200, buffer with 125 mM KCl, no Phe; self-association of PAH subunits
Description: as §1

[6] = target: the molecule itself; assay: SEC on calibrated Superdex-200, buffer with 125 mM KCl and 1 mM Phe; self-association of PAH subunits
Description: as §1

[7] = target: the molecule itself; assay: SEC on Superdex 200 (FIG. 7D); self-association

effect on tetramer predominance by SEC [1]: not altered | effect on IEC elution profile [2]: dramatically alters the elution profile
Molecule: N[C@@H](Cc1ccccc1)C(=O)O [Phe, phenylalanine]
effect on distribution of PAH quaternary structure isoforms by native PAGE [3]: alters the distribution of PAH quaternary structure isoforms

Molecule: C[C@H](O)[C@H](O)[C@H]1CNc2nc(N)[nH]c(=O)c2N1 [BH4, tetrahydrobiopterin]
Kd ([4]; high-activity forms of PAH, read-out: Kd, binding to the high-activity forms of PAH): ~14 µM | Kd ([4]; low-activity form(s) of PAH, read-out: Kd, binding to the low-activity form(s) of PAH): ~0.1 µM

B1: Full length human phenylalanine hydroxylase (PAH), cleaved from an N-terminal MBP fusion construct (enzyme, UniProt P00439 1-452, looked up)
chain: MSTAVLENPGLGRKLSDFGQETSYIEDNCNQNGAISLIFSLKEEVGALAKVLRLFEENDVNLTHIESRPSRLKKDEYEFFTHLDKRSLPALTNIIKILRHDIGATVHELSRDKKKDTVPWFPRTIQELDRFANQILSYGAELDADHPGFKDPVYRARRKQFADIAYNYRHGQPIPRVEYMEEEKKTWGTVFKTLKSLYKTHACYEYNHIFPLLEKYCGFHEDNIPQLEDVSQFLQTCTGFRLRPVAGLLSSRDFLGGLAFRVFHCTQYIRHGSKPMYTPEPDICHELLGHVPLFSDRSFAQFSQEIGLASLGAPDEYIEKLATIYWFTVEFGLCKQGDSIKAYGAGLLSSFGELQYCLSEKPKLLPLELEKTAIQNYTVTEFQPLYYVAESFNDAKEKVRNFAATIPRPFSVRYDPYTQRIEVLDNTQQLKILADSINSEIGILCSALQKIK
notes: mature; also called human PAH
dimer:tetramer ratio [5]: ~2 dimer:tetramer ratio (x:1) | dimer:tetramer ratio [6]: ~1 dimer:tetramer ratio (x:1)

B2: Full length untagged rat phenylalanine hydroxylase (PAH), purified by the Shiman affinity method (enzyme, UniProt P04176 2-453, looked up)
chain: AAVVLENGVLSRKLSDFGQETSYIEDNSNQNGAISLIFSLKEEVGALAKVLRLFEENDINLTHIESRPSRLNKDEYEFFTYLDKRTKPVLGSIIKSLRNDIGATVHELSRDKEKNTVPWFPRTIQELDRFANQILSYGAELDADHPGFKDPVYRARRKQFADIAYNYRHGQPIPRVEYTEEEKQTWGTVFRTLKALYKTHACYEHNHIFPLLEKYCGFREDNIPQLEDVSQFLQTCTGFRLRPVAGLLSSRDFLGGLAFRVFHCTQYIRHGSKPMYTPEPDICHELLGHVPLFSDRSFAQFSQEIGLASLGAPDEYIEKLATIYWFTVEFGLCKEGDSIKAYGAGLLSSFGELQYCLSDKPKLLPLELEKTACQEYSVTEFQPLYYVAESFSDAKEKVRTFAATIPRPFSVRYDPYTQRVEVLDNTQQLKILADSINSEVGILCNALQKIKS
notes: mature; Homo-oligomer found predominantly as tetramer, with some dimer; also called rat PAH
binding result [7]: binds

— patent US20130004504A1, “METHOD OF MODULATING PHENYLALANINE HYDROXYLASE STRUCTURE AND FUNCTION” (Fox Chase Cancer Center, priority 2011, published 2013)
